Results on 21 compounds are retold here after patent publication US20090176811A1, “Substituted 5,6,7,8-Tetrahydro-pyrido[4,3-d]pyrimidine-2-yl Compounds and 5,6,7,8-Tetrahydro-quinazoline-2-yl Compounds” (GRUENENTHAL GmbH, priority 2004, published 2009).

For one test, the target named is T1, mGluR5 receptor (Sus scrofa, UniProt I3LUI7).
T1 construct: 450 μg of protein from brain homogenate is incubated; from tissue; host or cells: pig brain hemispheres without medulla, cerebellum and pons
Description: Affinity for the mGluR5 receptor ([3H]-MPEP binding, pig brain homogenate). Conditions: 10 μM compound, 15 nM [3H]-MPEP. Here is the method: III. Method for Determining Affinity for the mGluR5 Receptor
Pig brain homogenate is produced by homogenisation (Polytron Pt 3000, Kinematica AG, 10,000 rpm (revolutions per minute) for 90 seconds) of pig brain hemispheres without medulla, cerebellum and pons in a buffer of pH 8.0 (30 mM Hepes, Sigma, order number H3375+1 tablet Complete Roche Diagnostics, order number 1836145 made up to 100 ml) in a ratio of 1:20 (brain weight/volume) and differential centrifugation at 900 g and 40,000 g. 450 μg of protein from brain homogenate is incubated in each case in 250 μl incubation batches in 96-well microtitre plates with 15 nM ^3[H]-MPEP (Tocris, order number R1212) and the compounds to be investigated (in each case 10 μM in the test) in the above-stated buffer at room temperature for 60 minutes.
The batches are then filtered with the assistance of a Brandel Cell Harvester (Brandel, Grade Robotic 9600) on Unifilter plates with glass filter mats (Perkin Elmer, order number 6005177) and then rewashed 3 times with buffer of the above-stated composition using 250 μl per sample. The filter plates are then dried for 60 minutes at 55° C. Then 30 μl of Ultima Gold scintillating material (Packard BioScience, order number 6013159) is added per well and after 3 hours the samples are measured using the B counter ([…], Perkin Elmer). Nonspecific binding is determined by the addition of 10 μM 2-methyl-6-(phenylethynyl)-pyridine (Tocris, order number 1212).

For the next test, the target named is T2, 5-HT transporter (Rattus norvegicus, UniProt P31652).
T2 construct: from tissue; host or cells: rat medulla and pons synaptosomes (P2 fraction)
In words: 5-HT uptake inhibition in rat brain synaptosomes (medulla and pons). Format: biochemical. The text has this: (§1) I. Method for Determining Noradrenalin and 5-HT Uptake Inhibition:
(§2) Synaptosomes from rat brain regions are freshly isolated for in vitro studies, as described in the publication “The isolation of nerve endings from brain” by E. G. Gray and V. P. Whittaker, J. Anatomy 96, pages 79-88, 1962. The corresponding literature description is hereby introduced as a reference and is deemed to be part of the disclosure.
(§3) The tissue (hypothalamus for the determination of noradrenalin uptake inhibition and medulla and pons for the determination of 5-HT uptake inhibition) is homogenised in ice-cooled 0.32 M sucrose (100 mg of tissue/1 mL) in a glass homogeniser with Teflon pestle using five complete up and down strokes at 840 revolutions/minute.
(§4) The homogenate is centrifuged at 4° C. for 10 minutes at 1000 g. After subsequent centrifugation at 17000 g for 55 minutes, the synaptosomes (P2 fraction) are obtained, which are resuspended in 0.32 M […] (0.5 mL/100 mg of original weight).
(§5) The particular uptake is measured in a 96-well microtitre plate. The volume is 250 μl and the incubation proceeds at room temperature (approx. 20-25° C.) under an O2 atmosphere.
(§6) The incubation time is 7.5 minutes for [^3H]-NA and 5 minutes for [^3H]-5-HT.
(§7) The 96 samples are then filtered through a Unifilter GF/B microtitre plate (Packard) and washed with 200 mL of incubated buffer using a “Brabdel MPXRI-96T Cell-Harvester”. The Unifilter GF/B plate is dried for 1 hour at 55° C. The plate is then sealed with a Back seal (Packard) and 35 μl of scintillation fluid are added per well (Ultima Gold, Packard). After sealing with a top seal (Packard) and establishing an equilibrium (around 5 hours), radioactivity is determined in a “Trilux 1450 Microbeta” (Wallac).
(§8) The quantity of protein used in the above determination corresponds to the values known from the literature, as for example described in “Protein measurement with the folin phenol reagent”, Lowry et al., J. Biol. Chem., 193, 265-275, 1951.
(§9) A detailed description of the method may additionally be found in the literature, for example in M. Ch. Frink, H.-H. Hennies, W. Engelberger, M. Haurand and B. Wilffert (1996) Arzneim.-Forsch./Drug Res. 46 (III), 11, 1029-1036.
(§10) The corresponding literature descriptions are hereby introduced in each case as a reference and are deemed to be part of the present disclosure.
(§11) The following characteristics were determined for the NA or 5-HT transporter: […]

The next test concerns the target T3, NA transporter (Rattus norvegicus, UniProt Q63380).
T3 construct: from tissue; host or cells: rat hypothalamus synaptosomes (P2 fraction)
Description: Noradrenalin uptake inhibition in rat brain synaptosomes (hypothalamus). The test is classed as biochemical.
Text: as §1, §2, §3, §4, §5, §6, §7, §8, §9, §10, §11

Each structure is given as a SMILES string.

T3 sequence (Q63380 1-617): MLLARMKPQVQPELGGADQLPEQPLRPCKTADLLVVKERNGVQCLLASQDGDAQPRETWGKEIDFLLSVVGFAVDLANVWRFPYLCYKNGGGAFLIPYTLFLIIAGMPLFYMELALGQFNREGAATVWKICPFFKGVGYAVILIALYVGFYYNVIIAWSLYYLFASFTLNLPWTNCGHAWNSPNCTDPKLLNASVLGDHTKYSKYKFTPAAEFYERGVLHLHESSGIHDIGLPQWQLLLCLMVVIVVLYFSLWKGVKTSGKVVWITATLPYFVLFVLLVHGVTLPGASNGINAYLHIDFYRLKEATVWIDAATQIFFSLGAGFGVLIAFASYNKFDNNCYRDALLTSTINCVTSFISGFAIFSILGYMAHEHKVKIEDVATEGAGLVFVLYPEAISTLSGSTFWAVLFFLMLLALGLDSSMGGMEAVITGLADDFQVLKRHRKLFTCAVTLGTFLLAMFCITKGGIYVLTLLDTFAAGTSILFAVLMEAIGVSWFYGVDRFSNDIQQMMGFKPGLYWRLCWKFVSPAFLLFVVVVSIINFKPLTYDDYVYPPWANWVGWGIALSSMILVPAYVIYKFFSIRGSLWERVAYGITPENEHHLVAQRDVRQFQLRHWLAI
T2 sequence (P31652 whole entry): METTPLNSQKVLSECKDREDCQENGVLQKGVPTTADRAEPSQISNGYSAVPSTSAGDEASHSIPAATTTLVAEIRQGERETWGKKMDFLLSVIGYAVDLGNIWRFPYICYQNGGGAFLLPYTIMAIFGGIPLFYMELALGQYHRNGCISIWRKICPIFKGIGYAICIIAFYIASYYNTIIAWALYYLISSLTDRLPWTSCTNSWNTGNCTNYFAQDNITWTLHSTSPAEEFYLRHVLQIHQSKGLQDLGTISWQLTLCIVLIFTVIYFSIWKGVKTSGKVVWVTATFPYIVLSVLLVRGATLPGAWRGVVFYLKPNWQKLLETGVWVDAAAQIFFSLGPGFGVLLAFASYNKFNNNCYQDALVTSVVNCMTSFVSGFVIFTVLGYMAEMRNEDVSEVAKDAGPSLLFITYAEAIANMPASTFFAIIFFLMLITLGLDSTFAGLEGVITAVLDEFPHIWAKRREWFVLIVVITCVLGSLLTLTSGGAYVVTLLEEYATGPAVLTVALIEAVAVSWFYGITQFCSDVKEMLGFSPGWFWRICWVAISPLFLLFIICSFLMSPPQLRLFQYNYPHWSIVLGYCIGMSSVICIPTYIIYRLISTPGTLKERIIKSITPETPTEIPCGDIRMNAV
T1 sequence (I3LUI7 19-1212): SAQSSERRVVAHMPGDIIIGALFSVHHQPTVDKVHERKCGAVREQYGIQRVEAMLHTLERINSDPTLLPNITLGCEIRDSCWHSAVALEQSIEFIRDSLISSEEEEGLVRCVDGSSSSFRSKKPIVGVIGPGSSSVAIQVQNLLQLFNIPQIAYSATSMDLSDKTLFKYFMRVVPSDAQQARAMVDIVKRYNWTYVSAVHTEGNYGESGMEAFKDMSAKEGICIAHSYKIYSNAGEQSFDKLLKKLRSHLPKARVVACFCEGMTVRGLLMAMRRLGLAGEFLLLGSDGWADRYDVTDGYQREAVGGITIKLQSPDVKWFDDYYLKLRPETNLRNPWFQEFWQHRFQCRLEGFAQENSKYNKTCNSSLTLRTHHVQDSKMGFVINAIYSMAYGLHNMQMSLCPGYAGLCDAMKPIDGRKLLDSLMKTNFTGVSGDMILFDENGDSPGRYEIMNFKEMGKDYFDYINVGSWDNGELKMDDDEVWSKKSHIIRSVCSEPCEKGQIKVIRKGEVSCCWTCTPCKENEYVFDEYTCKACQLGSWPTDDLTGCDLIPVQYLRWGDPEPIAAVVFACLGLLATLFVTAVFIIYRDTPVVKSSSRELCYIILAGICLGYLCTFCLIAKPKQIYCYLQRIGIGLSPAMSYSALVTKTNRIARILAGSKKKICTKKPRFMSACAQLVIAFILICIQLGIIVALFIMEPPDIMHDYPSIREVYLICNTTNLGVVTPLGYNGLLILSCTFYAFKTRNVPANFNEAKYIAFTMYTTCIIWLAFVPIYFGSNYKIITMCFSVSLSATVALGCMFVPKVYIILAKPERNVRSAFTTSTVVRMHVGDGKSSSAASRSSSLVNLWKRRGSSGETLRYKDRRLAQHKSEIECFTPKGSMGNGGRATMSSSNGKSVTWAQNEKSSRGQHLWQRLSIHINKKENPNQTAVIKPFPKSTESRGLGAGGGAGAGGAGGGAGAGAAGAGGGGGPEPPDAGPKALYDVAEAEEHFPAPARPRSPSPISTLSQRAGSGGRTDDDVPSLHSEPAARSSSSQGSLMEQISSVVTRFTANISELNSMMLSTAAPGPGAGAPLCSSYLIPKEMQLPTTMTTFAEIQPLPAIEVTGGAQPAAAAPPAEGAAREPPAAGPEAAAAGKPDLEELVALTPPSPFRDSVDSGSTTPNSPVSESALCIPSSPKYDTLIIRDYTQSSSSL

The term inhibition denotes the change of the read-out against control, counted positive when it falls. Low values mean a weak effect, high ones a strong effect. On mGluR5 receptor, `CCOc1ccccc1C(=O)Nc1ncc2c(n1)CCN(C(=O)c1sccc1Cl)C2` [Example 145, N-[6-(3-chloro-thiophene-2-carbonyl)-5,6,7,8-tetrahydro-pyrido[4,3-d]pyrimidin-2-yl]-2-ethoxy-benzamide] came in with an inhibition at 10 µM of 84.4%.
On the same count and under the same terms, the value for `CC(C)C(NC(=O)OCC1c2ccccc2-c2ccccc21)C(=O)NC1CCc2nc(NC(=O)c3cccs3)ncc2C1` (centres unmarked) [Example 139, (2-methyl-1-{2-[(thiophene-2-carbonyl)-amino]-5,6,7,8-tetrahydro-quinazolin-6-ylcarbamoyl}-propyl)-carbamic acid 9H-fluoren-9-ylmethyl ester] was 31%.
As for `CC(C)(C)OC(=O)N1CCC(C(=O)NC2CCc3nc(NC(=O)c4ccc(F)cc4)ncc3C2)CC1` (centres unmarked) [Example 194, 4-[2-(4-fluoro-benzoylamino)-5,6,7,8-tetrahydro-quinazolin-6-ylcarbamoyl]-piperidine-1-carboxylic acid tert-butyl ester], at mGluR5 receptor, the inhibition at 10 µM came to 45.6%.
On to `O=C(Nc1ncc2c(n1)CCC(NS(=O)(=O)c1ccc(Cl)s1)C2)c1ccc(F)cc1` (centres unmarked) [Example 202, N-[6-(5-chloro-thiophene-2-sulfonylamino)-5,6,7,8-tetrahydro-quinazolin-2-yl]-4-fluoro-benzamide], for which, on mGluR5 receptor, 10 µM produced 33.1% inhibition.
Consider `CCCC(=O)Nc1ncc2c(n1)CCC(NS(=O)(=O)c1cccc(C)c1)C2` (centres unmarked) [Example 146, N-[6-(toluene-3-sulfonylamino)-5,6,7,8-tetrahydro-quinazolin-2-yl]-butyramide], for which the inhibition at 10 µM at mGluR5 receptor was found to be 39.6%.
The compound `Cc1cc(C)c(C)c(S(=O)(=O)N2CCc3nc(NC(=O)c4cccs4)ncc3C2)c1C` [Example 99, thiophene-2-carboxylic acid [6-(2,3,5,6-tetramethyl-benzenesulfonyl)-5,6,7,8-tetrahydro-pyrido[4,3-d]pyrimidin-2-yl]-amide] returned an inhibition at 1 µM against 5-HT transporter of 41%. At NA transporter, this compound had an inhibition at 10 µM of 56%.
In the same order, the values of `CCc1ccc(C(=O)Nc2ncc3c(n2)CCN(S(=O)(=O)c2ccsc2)C3)cc1` [Example 121, 4-ethyl-N-[6-(thiophene-3-sulfonyl)-5,6,7,8-tetrahydro-pyrido[4,3-d]pyrimidin-2-yl]-benzamide] are 52% and 92%.
In turn, `COc1ccccc1C(=O)Nc1ncc2c(n1)CCN(C(=O)c1cc(-c3ccc(Cl)cc3)oc1C)C2` [Example 78, N-{6-[5-(4-chloro-phenyl)-2-methyl-furan-3-carbonyl]-5,6,7,8-tetrahydro-pyrido[4,3-d]pyrimidin-2-yl}-2-methoxy-benzamide] had an inhibition at 10 µM on mGluR5 receptor of 41.1%.
With `CCc1ccc(C(=O)Nc2ncc3c(n2)CCN(S(=O)(=O)c2ccc4c(c2)CN(C(=O)C(F)(F)F)CC4)C3)cc1` [Example 157, 4-ethyl-N-{6-[2-(2,2,2-trifluoro-acetyl)-1,2,3,4-tetrahydro-isoquinoline-7-sulfonyl]-5,6,7,8-tetrahydro-pyrido[4,3-d]pyrimidin-2-yl}-benzamide], the inhibition at 1 µM at 5-HT transporter came out at 43%. The compound also registered an inhibition at 10 µM against NA transporter of 61%.
As to `O=C(Nc1ncc2c(n1)CCN(C(=O)CCC1CCCC1)C2)c1ccncc1` [Example 132, N-[6-(3-cyclopentyl-propionyl)-5,6,7,8-tetrahydro-pyrido[4,3-d]pyrimidin-2-yl]-isonicotinamide], 10 µM produced 58.1% inhibition on mGluR5 receptor.
On 5-HT transporter, `O=C(Nc1ncc2c(n1)CCN(S(=O)(=O)c1ccc(OC(F)(F)F)cc1)C2)c1ccc(Cl)c(Cl)c1` [Example 134, 3,4-dichloro-N-[6-(4-trifluoromethoxy-benzenesulfonyl)-5,6,7,8-tetrahydro-pyrido[4,3-d]pyrimidin-2-yl]-benzamide] returned an inhibition at 1 µM of 58%. On NA transporter, this compound showed an inhibition at 10 µM of 59%.
Turning to `O=C(Nc1ncc2c(n1)CCN(S(=O)(=O)c1ccc(Cl)cc1)C2)c1ccc(Cl)c(Cl)c1` [Example 71, 3,4-dichloro-N-[6-(4-chloro-benzenesulfonyl)-5,6,7,8-tetrahydro-pyrido[4,3-d]pyrimidin-2-yl]-benzamide], at 1 µM the inhibition against 5-HT transporter was 47%. The compound further registered an inhibition at 10 µM at NA transporter of 74%.
In the same order, the values of `CC(C)(C)c1ccc(C(=O)Nc2ncc3c(n2)CCN(S(=O)(=O)c2ccc4c(c2)OCCO4)C3)cc1` [Example 186, 4-tert-butyl-N-[6-(2,3-dihydro-benzo[1,4]dioxin-6-sulfonyl)-5,6,7,8-tetrahydro-pyrido[4,3-d]pyrimidin-2-yl]-benzamide] are 46% and 82%.
With `O=C(Nc1ncc2c(n1)CCN(C(=O)Cc1c(Cl)cccc1Cl)C2)c1cccc(Cl)c1` [Example 187, 3-chloro-N-{6-[2-(2,6-dichloro-phenyl)-acetyl]-5,6,7,8-tetrahydro-pyrido[4,3-d]pyrimidin-2-yl}-benzamide], on 5-HT transporter, at 1 µM the inhibition was 29%. For the same compound, the inhibition at 10 µM on NA transporter was 100%.
`O=C(Nc1ncc2c(n1)CCN(C(=O)c1ccc(-c3cccs3)cc1)C2)c1cc(Cl)cc(Cl)c1` [Example 144, 3,5-dichloro-N-[6-(4-thiophen-2-yl-benzoyl)-5,6,7,8-tetrahydro-pyrido[4,3-d]pyrimidin-2-yl]-benzamide] displayed an inhibition at 1 µM against 5-HT transporter of 42%. Besides, at 10 µM the inhibition at NA transporter was 67%.
In turn, `CCc1ccc(C(=O)Nc2ncc3c(n2)CCN(C(=O)c2ccc(-n4cccn4)cc2)C3)cc1` [Example 74, 4-ethyl-N-[6-(4-pyrazol-1-yl-benzoyl)-5,6,7,8-tetrahydro-pyrido[4,3-d]pyrimidin-2-yl]-benzamide] had an inhibition at 1 µM on 5-HT transporter of 54%. The compound further had an inhibition at 10 µM on NA transporter of 43%.
As to `Cc1ccccc1C(=O)N1CCc2nc(NC(=O)c3cccc(Cl)c3)ncc2C1` [Example 109, 3-chloro-N-[6-(2-methyl-benzoyl)-5,6,7,8-tetrahydro-pyrido[4,3-d]pyrimidin-2-yl]-benzamide], the inhibition at 1 µM at 5-HT transporter amounted to 30%. The compound also had an inhibition at 10 µM against NA transporter of 92%.
`O=C(Nc1ncc2c(n1)CCN(C(=O)C1CCc3ccccc3C1)C2)c1cccc(F)c1` (centres unmarked) [Example 141, 3-fluoro-N-[6-(1,2,3,4-tetrahydro-naphthalene-2-carbonyl)-5,6,7,8-tetrahydro-pyrido[4,3-d]pyrimidin-2-yl]-benzamide] had an inhibition at 1 µM at 5-HT transporter of 54%. The compound further displayed an inhibition at 10 µM at NA transporter of 55%.
Taken in the same sequence, the figures for `Cc1cccc(C(=O)Nc2ncc3c(n2)CCN(S(=O)(=O)c2cccc(C)c2)C3)c1` [Example 116, 3-methyl-N-[6-(toluene-3-sulfonyl)-5,6,7,8-tetrahydro-pyrido[4,3-d]pyrimidin-2-yl]-benzamide] were 31% and 52%.
As to `Cc1ccc(C(=O)N2CCc3nc(NC(=O)c4ccc(C(C)(C)C)cc4)ncc3C2)cc1[N+](=O)[O-]` [Example 92, 4-tert-butyl-N-[6-(4-methyl-3-nitro-benzoyl)-5,6,7,8-tetrahydro-pyrido[4,3-d]pyrimidin-2-yl]-benzamide], the inhibition at 1 µM on 5-HT transporter turned out to be 66%. The same compound yielded an inhibition at 10 µM against NA transporter of 35%.
Turning to `Cc1cc(C)c(S(=O)(=O)N2CCc3nc(NC(=O)c4ccc(Cl)c(Cl)c4)ncc3C2)c(C)c1` [Example 95, 3,4-dichloro-N-[6-(2,4,6-trimethyl-benzenesulfonyl)-5,6,7,8-tetrahydro-pyrido[4,3-d]pyrimidin-2-yl]-benzamide], at 1 µM the inhibition at 5-HT transporter was 59%. This compound came in with an inhibition at 10 µM against NA transporter of 72%.
